Data on one molecule can be found in BindingDB's records for patent US11787796 (Takeda Pharmaceutical, 2023).

A value given as a limit tells only on which side of the number the result lay.

This test deals with Plasma kallikrein (Homo sapiens, UniProt P03952). Description: Inhibitory Activity of Exemplary Compounds Against Plasma Kallikrein. As for the experimental part: Example compounds were evaluated for inhibition of the human activated kallikrein enzyme in two formats of an assay employing a fluorogenic peptide substrate. In one assay format, the concentrations of reagents were as follows: 20 mM Tris pH 7.5, 1 mM EDTA, 150 mM sodium chloride, 0.1% PEG-400, 0.1% Triton X-100, […], 300 uM Pro-Phe-Arg-7-amido-4-methylcoumarin substrate. Prior to reaction initiation with substrate, enzyme and inhibitors were preincubated for 30 min at RT. After initiation with substrate, reactions were incubated for 10 min at RT and fluorescence emission at 460 nm from 380 nm excitation measured with a microplate reader. In another assay format, the concentrations of reagents were as follows: 20 mM Tris pH 7.5, 1 mM EDTA, 150 mM sodium chloride, 0.1% PEG-400, 0.1% Triton X-100, 5 pM activated kallikrein enzyme, 300 uM Pro-Phe-Arg-7-amido-4-methylcoumarin substrate. Prior to reaction initiation with substrate, enzyme and inhibitors were preincubated for 30 min at RT. After initiation with substrate, reactions were incubated for 18 h at RT and fluorescence emission at 460 nm from 380 nm excitation measured with a microplate reader.
Sequence of Plasma kallikrein (P03952 20-390 limits assumed): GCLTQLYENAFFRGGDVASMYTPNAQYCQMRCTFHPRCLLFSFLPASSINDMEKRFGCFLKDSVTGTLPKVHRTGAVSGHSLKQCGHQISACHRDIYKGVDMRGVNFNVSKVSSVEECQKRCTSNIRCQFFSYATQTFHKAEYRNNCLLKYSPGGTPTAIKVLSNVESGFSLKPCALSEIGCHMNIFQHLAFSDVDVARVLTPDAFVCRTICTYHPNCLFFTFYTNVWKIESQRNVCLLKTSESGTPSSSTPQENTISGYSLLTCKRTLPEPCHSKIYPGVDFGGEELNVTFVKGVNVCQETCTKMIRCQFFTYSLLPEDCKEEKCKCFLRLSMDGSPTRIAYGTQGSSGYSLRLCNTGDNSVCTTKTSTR
Sequence of Plasma kallikrein (P03952 391-638 limits assumed): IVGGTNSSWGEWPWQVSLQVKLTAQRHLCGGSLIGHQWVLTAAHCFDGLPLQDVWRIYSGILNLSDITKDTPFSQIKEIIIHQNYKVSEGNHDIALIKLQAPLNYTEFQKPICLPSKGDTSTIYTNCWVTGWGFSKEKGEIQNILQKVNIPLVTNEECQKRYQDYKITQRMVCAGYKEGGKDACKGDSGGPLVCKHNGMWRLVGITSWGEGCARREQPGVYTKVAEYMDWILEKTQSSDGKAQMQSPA

By EC50 is commonly meant the concentration that produces a half-maximal response. Read a high EC50 as a need for much substance. `COc1ccc(-n2cnnn2)c(CNC(=O)c2nnn(Cc3cn4cc(C5CC5)ccc4n3)n2)c1F` [US11787796, Compound I-28]: the EC50 is less than 1 nM.
